Legend:
[1] = system: normal NK cells expanded with K562-aAPC; assay: percent inhibition of viability; higher = more inhibition; conditions: 72 h, IL-2 2.5 ng/mL
Experimental: (§1)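 Drug sensitivity and resistance testing on K562-aAPC-expanded normal NK cells: 5 concentrations (10-fold steps over a 10,000-fold range), 72 h at 37 °C, viability by CellTiter-Glo normalised to DMSO and benzethonium chloride controls; DSS from the fitted curve.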

[2] = system: normal NK cells expanded with K562-aAPC; assay: drug sensitivity score (DSS) (DSS units); higher = more sensitive; extreme values may be limits of the assay; conditions: 72 h; IL-2 2.5 ng/mL
Experimental: as §1

[3] = system: normal primary NK cells, pool 1 (3 donors), resting (IL-2 0 ng/mL); assay: percent inhibition of viability; higher = more inhibition; conditions: 72 h
[4] = system: normal primary NK cells, pool 2 (3 donors) (IL-2 2.5 ng/mL); assay: as above; conditions: 72 h
[5] = system: SNK-6 (IL-2 2.5 ng/mL); assay: as above; conditions: 72 h
[6] = system: DERL-7 (IL-2 2.5 ng/mL); assay: as above; conditions: 72 h
[7] = system: IMC-1 (IL-2 20 ng/mL); assay: as above; conditions: 72 h
[8] = system: NK-92 (IL-2 2.5 ng/mL); assay: as above; conditions: 72 h
[9] = system: KHYG-1 (IL-2 2.5 ng/mL); assay: as above; conditions: 72 h
[10] = system: normal primary NK cells, pool 3 (3 donors) (IL-2 2.5 ng/mL); assay: as above; conditions: 72 h
[11] = system: NK-YS (IL-2 2.5 ng/mL); assay: as above; conditions: 72 h
[12] = system: NKL (IL-2 2.5 ng/mL); assay: as above; conditions: 72 h
[13] = system: KAI3 (IL-2 2.5 ng/mL); assay: as above; conditions: 72 h
[14] = system: normal primary NK cells, pool 1 (3 donors) (IL-2 2.5 ng/mL); assay: as above; conditions: 72 h
[15] = system: YT (IL-2 2.5 ng/mL); assay: as above; conditions: 72 h
[16] = system: normal primary NK cells, pool 1 (3 donors), resting (IL-2 0 ng/mL); assay: drug sensitivity score (DSS) (DSS units); higher = more sensitive; extreme values may be limits of the assay; conditions: 72 h
[17] = system: normal primary NK cells, pool 2 (3 donors) (IL-2 2.5 ng/mL); assay: as above; conditions: 72 h
[18] = system: SNK-6 (IL-2 2.5 ng/mL); assay: as above; conditions: 72 h
[19] = system: DERL-7 (IL-2 2.5 ng/mL); assay: as above; conditions: 72 h
[20] = system: IMC-1 (IL-2 20 ng/mL); assay: as above; conditions: 72 h
[21] = system: NK-92 (IL-2 2.5 ng/mL); assay: as above; conditions: 72 h
[22] = system: KHYG-1 (IL-2 2.5 ng/mL); assay: as above; conditions: 72 h
[23] = system: normal primary NK cells, pool 3 (3 donors) (IL-2 2.5 ng/mL); assay: as above; conditions: 72 h
[24] = system: NK-YS (IL-2 2.5 ng/mL); assay: as above; conditions: 72 h
[25] = system: NKL (IL-2 2.5 ng/mL); assay: as above; conditions: 72 h
[26] = system: KAI3 (IL-2 2.5 ng/mL); assay: as above; conditions: 72 h
[27] = system: normal primary NK cells, pool 1 (3 donors) (IL-2 2.5 ng/mL); assay: as above; conditions: 72 h
[28] = system: YT (IL-2 2.5 ng/mL); assay: as above; conditions: 72 h

CCc1cncnc1N1CCN(Cc2nc3ccc(C(F)(F)F)cc3[nH]2)CC1 (max concentration tested 10000 nM)
percent inhibition of viability [%]
Conditions | 1 nM | 10 nM | 100 nM | 1000 nM | 10000 nM
[1] | -4.68 | -5.08 | -4.29 | 0.89 | 5
[3] | -8.97 | 13.4 | 10 | 13.6 | 75.6
[4] | -7.09 | 4.46 | 7.58 | 8.67 | 44.9
[5] | -7.09 | -9.08 | 8.29 | 30.2 | 30.4
[6] | 3.43 | 7.18 | -5.16 | -1.27 | 14.8
[7] | -6.13 | -3.43 | 3.72 | 11.3 | 90
[8] | -1.05 | 10.1 | 6.83 | 20.4 | 62.3
[9] | -4.31 | -8.31 | -0.12 | 17.2 | 49.7
[10] | -9.93 | 7.71 | 7.04 | -6.89 | 26.4
[11] | -2.32 | -5.55 | -2.77 | 9.57 | 47.8
[12] | -11.3 | -11 | -6.3 | 10.8 | 60.8
[13] | -0.12 | -5.66 | -9.54 | -2.26 | 28.4
[14] | -2.5 | 14.2 | 12.3 | 11.8 | 63.6
[15] | -1.53 | -2.69 | 2.06 | 11.5 | 41.9

Conditions | drug sensitivity score
[2] | 0
[16] | 6.44
[17] | 3.74
[18] | 6.35
[19] | 0.17
[20] | 6.88
[21] | 5.84
[22] | 5.08
[23] | 0.75
[24] | 4.07
[25] | 5.1
[26] | 1.03
[27] | 5.45
[28] | 3.86

COCC(=O)NC/C=C/c1ccc2ncnc(Nc3ccc(Oc4ccc(C)nc4)c(C)c3)c2c1 (max concentration tested 10000 nM)
percent inhibition of viability [%]
Conditions | 1 nM | 10 nM | 100 nM | 1000 nM | 10000 nM
[1] | -7.95 | -1.69 | -8 | -3.66 | 3.1
[3] | 14.9 | 9.42 | 15.7 | 21.2 | 61
[4] | 1.3 | 6.76 | -0.67 | 11.9 | 23.1
[5] | -0.22 | -18.4 | -12.7 | -1.13 | 63.7
[6] | -3.08 | -0.4 | -4.63 | 9.9 | 33
[7] | -0.96 | -1.82 | -0.25 | 1.87 | 55.9
[8] | 1.59 | 8.37 | 6.53 | 22.8 | 75
[9] | -2.05 | -5.21 | -2.56 | -1.27 | 29.4
[10] | -5.66 | 4.44 | 4.87 | 10.9 | 5.97
[11] | -0.22 | 0.49 | 1.46 | 4.98 | 25.6
[12] | 1.03 | -1.8 | 0.69 | 8.06 | 58.8
[13] | 16.4 | 7.76 | 7.06 | 11.1 | 64.8
[14] | -12 | -6.34 | -1.36 | -3.88 | 14.2
[15] | 3.6 | -0.32 | 0.57 | 9.46 | 48.2

Conditions | drug sensitivity score
[2] | 0
[16] | 6.9
[17] | 2.13
[18] | 3.37
[19] | 2.95
[20] | 3.25
[21] | 7.15
[22] | 1.16
[23] | 0.05
[24] | 1.75
[25] | 4.55
[26] | 5.41
[27] | 0.09
[28] | 4.08

C[C@@H](Oc1cc(-n2cnc3ccc(CN4CCN(C)CC4)cc32)sc1C(N)=O)c1ccccc1C(F)(F)F (max concentration tested 10000 nM)
percent inhibition of viability [%]
Conditions | 1 nM | 10 nM | 100 nM | 1000 nM | 10000 nM
[1] | -4.93 | 10.2 | 55.8 | 59.8 | 101
[3] | 15.5 | 24.8 | 22.1 | 54.6 | 96.9
[4] | -4.17 | -1.65 | 6.09 | 21.6 | 97.1
[5] | -6.84 | 54.4 | 70.9 | 60.5 | 100
[6] | -5.05 | 5.6 | 99 | 97.7 | 101
[7] | -5.44 | -5.88 | 96.8 | 98 | 99.8
[8] | -10.3 | 68.8 | 96.9 | 98.4 | 108
[9] | -6.87 | 20.7 | 99 | 104 | 109
[10] | -0.27 | -3.72 | 15.8 | 9.91 | 100
[11] | -6.78 | 7.77 | 68.5 | 63.2 | 107
[12] | -22.4 | 10.7 | 76.8 | 76.5 | 107
[13] | -0.2 | 19.3 | 57.2 | 46.8 | 103
[14] | -0.02 | -2.73 | 1.92 | 18.8 | 99.3
[15] | -6.84 | 0.54 | 79.4 | 64 | 108

Conditions | drug sensitivity score
[2] | 19.8
[16] | 15.5
[17] | 8.79
[18] | 27.6
[19] | 31.2
[20] | 29.6
[21] | 38.4
[22] | 33.8
[23] | 7.17
[24] | 23.1
[25] | 27.8
[26] | 19.3
[27] | 8.55
[28] | 27.5

Cn1cc(-c2ccc3nnc(C(F)(F)c4ccc5ncccc5c4)n3n2)cn1 (max concentration tested 10000 nM)
percent inhibition of viability [%]
Conditions | 1 nM | 10 nM | 100 nM | 1000 nM | 10000 nM
[1] | 2.09 | -3.72 | 2.32 | 3.57 | 16.4
[3] | -30.2 | -15.2 | -20.6 | -28.2 | -14.9
[4] | -8.18 | -11 | -4.17 | -3.65 | 7.05
[5] | -5.06 | -3.02 | -0.1 | 27.9 | 44
[6] | -6.47 | 1.35 | -5.46 | -8.39 | -0.31
[7] | 2.83 | 3.66 | 7.99 | 14.2 | 18.1
[8] | 3.19 | 2.36 | 1.58 | 20 | 16.7
[9] | 0.7 | 1.87 | -1.15 | 9.39 | 7.11
[10] | -11.6 | -17.9 | -6.24 | 0.44 | 0.55
[11] | -0.7 | -2.18 | -0.71 | 3.19 | 6.06
[12] | 15.6 | 0.97 | 2.69 | 5.68 | 32.8
[13] | 3.43 | 0.25 | 2.09 | 1.51 | 5.42
[14] | -10.8 | -1.09 | -9.66 | -1.21 | 4
[15] | 2.08 | 2.01 | -0.66 | 8.07 | 15.4

Conditions | drug sensitivity score
[2] | 0.71
[16] | 0
[17] | 0
[18] | 5.6
[19] | 0
[20] | 1.63
[21] | 2.9
[22] | 0
[23] | 0
[24] | 0
[25] | 2.43
[26] | 0
[27] | 0
[28] | 0.87

N#Cc1ccc(COC[C@H]2O[C@@H](n3c(NCc4ccc(Cl)c(Cl)c4)nc4c(N)ncnc43)[C@H](O)[C@@H]2O)cc1 (max concentration tested 10000 nM)
percent inhibition of viability [%]
Conditions | 1 nM | 10 nM | 100 nM | 1000 nM | 10000 nM
[1] | -3.56 | -7.9 | -9.32 | 1.88 | 14.8
[3] | -3.74 | -9.12 | 7.84 | 15.3 | 41
[4] | -10.6 | -2.26 | -3.97 | -0.12 | 12.3
[5] | 5.72 | 12.3 | -10.3 | 21.8 | 52.5
[6] | 4.78 | 2.63 | 2.42 | 7.67 | 32.1
[7] | -1.92 | -0.39 | -4.01 | -16.8 | 97.2
[8] | -0.8 | 4.51 | -4.4 | 7.42 | 45.2
[9] | -2.11 | -1.26 | 0.87 | 11.4 | 62.4
[10] | -13.6 | -13.5 | -14 | -9.19 | -0.46
[11] | -1.65 | 1.3 | -0.1 | 21.7 | 64.4
[12] | 4.1 | 5.28 | -8.68 | 9.7 | 9.11
[13] | 1.01 | 1.02 | -1.36 | 17.5 | 34.8
[14] | -6.38 | -11.1 | 5.83 | 5.84 | 18.5
[15] | 2.07 | 0.4 | -2.55 | 12.2 | 59

Conditions | drug sensitivity score
[2] | 0.38
[16] | 3.54
[17] | 0.06
[18] | 5.74
[19] | 2.63
[20] | 4.46
[21] | 3.57
[22] | 5.29
[23] | 0
[24] | 6.65
[25] | 0
[26] | 3.83
[27] | 0.69
[28] | 5.18

From the supplement of paper PMC5908809
